In patent publication US20200085918A1, “COMPOSITIONS AND METHODS FOR TREATMENT OF UREMIC CARDIOMYOPATHY” (priority 2016, published 2020):

What was measured:
[1] = system: PNx-induced cardiomyopathy, C57BL/6 mice; assay: Transthoracic echocardiography, PNx mice (effects of CoPP and pNaKtide on PNx-induced cardiomyopathy); assay type: in vivo, mouse; conditions: PNX + CoPP (5 mg/kg BW ip), n = 15, mean ± SE
Procedure: Experimental designs: Male C57BL/6 10-12 weeks were purchased from Hill Top Laboratories and housed in pathogen free animal facility in designated rooms equipped with cages that supply purified air under a 12 hour light/dark cycle. Food and water were supplied ad libitum. Animal protocol was approved by the Marshall University Institutional Animal Care and Use Committee. The number of animals in each group was determined by Power analysis using the following assumptions derived from a previous study with mice, with variance of 0.2 within the groups, power of 0.80, and alpha error of 0.05. Effects of CoPP and […] on PNx-induced cardiomyopathy: Cobalt protoporphyrin (CoPP, Frontier Scientific, Logan, Utah) was used to induct HO-1 expression and […] was used to block the Na/K-ATPase signaling function. […] Transthoracic Echocardiography: Transthoracic echocardiography was performed 24 hours before sacrifice. […] Mice in supine position were placed on a heating pad to keep the body temperature at 37° C. Body core temperature and ECG for physiological monitoring were obtained and manipulated by using a Visualsonics Mouse Handling Table (11436) and a rectal thermometer. Echocardiographic images were captured using MS400: 18-38 MHz operating frequency MicroScan transducer attached to a Vevo 1100 Imaging System (FUJIFILM VisualSonics Inc.). Warmed echo gel was placed between the probe and shaved chest. B-mode and M-mode images of the heart were obtained from parasternal long axis and short axis. PW Doppler and Color Doppler were obtained from basal short axis. The average values were calculated from at least four consecutive cardiac cycles. Left-ventricular end-diastolic area (EDA), end-systolic area (ESA), as well as main pulmonary artery diameter was measured from B-mode. End-diastolic diameters (EDD), end-systolic diameters (ESD), as well as anterior and posterior wall thickness (AWT & PWT) were captured from M-mode. Isovolumic contraction and relaxation time (IVCT & IVRT), ejection time (ET), as well as pulmonary velocity time integral (VTI) were obtained from PW and color Doppler.

collagen-1 [2] = assay: Collagen-1 expression in left ventricle homogenates (western blot), CoPP and pNaKtide study; assay type: in vivo, mouse; conditions: LV homogenates; PNx + CoPP 5 mg/kg BW ip; p<0.01 vs PNx
Procedure: (§1) Western Blotting Analysis: Cardiac (left ventricle) tissue samples and cardiac fibroblast homogenates were prepared and analyzed as was previously described for collagen-1 and other proteins. Assessment of protein carbonylation and activation of c-Src and ERK1/2 was performed as was described previously. Multiple exposures were analyzed to assure that the signals were within the linear range of the film. The signal density was determined using NIH ImageJ 1.48v software. Polyclonal antibody against type I collagen was from Southern Biotech (Birmingham, Ala.). Polyclonal anti-Src [pY418] phosphospecific antibody was from Invitrogen (Camarillo, Calif.). Monoclonal antibody against total c-Src was from Santa Cruz (Santa Cruz, Calif.). 2,4-dinitrophenylhydrazine (DNPH) and antibody against 2,4-dinitrophenyl (DNP) hydrazone derivatives were from Sigma-Aldrich.

[3] = system: PNx-induced cardiac fibrosis; assay: Cardiac fibrosis by Sirius Red/Fast Green staining, CoPP and pNaKtide study; assay type: in vivo, mouse; conditions: PNx + CoPP 5 mg/kg BW ip; p<0.01 vs. PNx
Procedure: Effects of CoPP and […] on PNx-induced cardiomyopathy: Cobalt protoporphyrin (CoPP, Frontier Scientific, Logan, Utah) was used to induct HO-1 expression and […] was used to block the Na/K-ATPase signaling function. […] Sirius Red/Fast Green staining: Histology staining for collagen fiber was performed on tissues harvested with Sirius Red/Fast Green Collagen Staining solutions (Sigma-Aldrich) according to the manufacturer's protocol. Tissues preparation, fixation, and data analysis were conducted as previously described.

c-Src [4] = assay: c-Src activation in left ventricle homogenates, CoPP and pNaKtide study; assay type: in vivo, mouse; conditions: PNx + CoPP 5 mg/kg BW ip, 4 weeks after PNx; p<0.01 vs PNx
Procedure: as §1

PNx mice [5] = assay: Renal function: plasma cystatin C, creatinine and BUN, CoPP and pNaKtide study; assay type: in vivo, mouse; conditions: PNx + CoPP 5 mg/kg BW ip
Procedure: Measurement of plasma cystatin C, creatinine and blood urea nitrogen (BUN): Mouse cystatin C ELISA kit and mouse creatinine kit were obtained from Crystal Chem. Inc. (Downers Grove, Ill.). Mouse BUN ELISA kit was obtained from MyBioSource Inc (San Diego, Calif.). The measurements were performed following manufacturers' instructions. Each sample was tested in duplicate.

HO-1 [6] = assay: HO-1 expression in primary cardiac fibroblasts; assay type: cell-based, mouse; conditions: 24 h
Procedure: as §1
(§2) Experimental design for in vitro experiment: C57BL/6 mouse primary cardiac fibroblast cells (purchased from Cell Biologics, Inc., Chicago, Ill.) were resuspended in complete fibroblast medium with supplements and 10% FBS (Cell Biologics, Inc.). The cultures were maintained at 37° C. in a 5% CO2 incubator and the medium was changed after 48 h and every 2-3 days thereafter. Cardiac fibroblast cells (passage 3-4) were grown until over confluent and were serum-starved (with 1% FBS) overnight before being used for the experiments. […]

TBARS = assay: Thiobarbituric acid reactive substances (TBARS) in treated PNx mice; assay type: in vivo, mouse; conditions: PNx + CoPP 5 mg/kg BW ip
c-Src [7] = assay: c-Src activation (pY418 c-Src/total c-Src) in primary cardiac fibroblasts; assay type: cell-based, mouse
Procedure: as §1, §2

PNx mice [8] = assay: Heart weight/body weight ratio, CoPP and pNaKtide study; assay type: in vivo, mouse; conditions: PNx + CoPP 5 mg/kg BW ip
Procedure: Nephrectomy Mouse Model: The PNx model included two-step surgeries. […] Step-two surgery was operated 7 days later, in which the right kidney was removed. For sham surgery, the two-step surgeries were performed in the same way as in the PNx group, without ligation of left kidney and removal of right kidney.
CoPP injections were given 5 days prior to, and on the day of, surgery, as well as every 5 days thereafter until sacrificing.

ERK1/2 [9] = assay: ERK1/2 activation (phosphor-ERK/total ERK) in primary cardiac fibroblasts; assay type: cell-based, mouse
Procedure: as §1, §2

HO-1 [10] = assay: HO-1 expression in left ventricle homogenates (western blot), CoPP and pNaKtide study; assay type: in vivo, mouse; conditions: CoPP 5 mg/kg BW ip
Procedure: as §1

collagen-1 [11] = assay type: cell-based, mouse
Procedure: as §1
Experimental design for in vitro experiment: C57BL/6 mouse primary cardiac fibroblast cells (purchased from Cell Biologics, Inc., Chicago, Ill.) were resuspended in complete fibroblast medium with supplements and 10% FBS (Cell Biologics, Inc.). The cultures were maintained at 37° C. in a 5% CO2 incubator and the medium was changed after 48 h and every 2-3 days thereafter. Cardiac fibroblast cells (passage 3-4) were grown until over confluent and were serum-starved (with 1% FBS) overnight before being used for the experiments. Cells were treated with or without TCB (100 nM) to determine procollagen-1 and HO-1 expression (24 h treatment), and c-Src activation and protein carbonylation (1 h treatment).

protein carbonylation [12] = assay: Protein carbonylation in left ventricle homogenates, CoPP and pNaKtide study; assay type: in vivo, mouse; conditions: PNx + CoPP 5 mg/kg BW ip; p<0.01 vs PNx
Procedure: as §1

ERK1/2 [13] = assay: ERK1/2 activation in left ventricle homogenates, CoPP and pNaKtide study; assay type: in vivo, mouse; conditions: PNx + CoPP 5 mg/kg BW ip, 4 weeks after PNx; p<0.01 vs PNx
Procedure: as §1

protein carbonylation [14] = assay: Protein carbonylation in primary cardiac fibroblasts; assay type: cell-based, mouse
Procedure: as §1, §2

[15] = CoPP 5 μM, 24 h pre-treatment, TCB 100 nM 1 h
[16] = TCB 100 nM, 1 h, cardiac fibroblasts

With `C=CC1=C(C)c2cc3[n-]c(cc4nc(cc5[n-]c(cc1n2)c(C)c5CCC(=O)[O-])C(CCC(=O)[O-])=C4C)c(C)c3C=C.[Co+2].[H+].[H+]` [CoPP, cobalt protoporphyrin] the “AWT, anterior wall thickness” value [1] was 0.65 ± 0.01^$$ mm, the “CO, cardiac output” value [1] was 10.5 ± 0.3 mL/min and the “EDA, end diastolic area” value [1] was 27.2 ± 0.6 mm^2. The “EDD, end diastolic dimension” value [1] was 4.4 ± 0.1 mm, the “EF, ejection fraction” value [1] was 60.0 ± 2.9% and the “ESA, end systolic area” value [1] was 19.0 ± 0.1 mm^2. The “ESD, end systolic dimension” value [1] was 3.2 ± 0.1 mm, the “ET, ejection time” value [1] was 44 ± 1.0 ms and the “FS, fractional shortening” value [1] was 26.8 ± 1.7%. The “HR, heart rate” value [1] was 453 ± 11 beat/min, the “IVCT + IVRT, isovolumic contraction time + isovolumic relaxation time” value [1] was 21 ± 0.7^$$ msec and the “LVMI, left ventricle mass index” value [1] was 4.0 ± 0.1^$$. For the same compound, the “PWT, posterior wall thickness” value [1] was 0.59 ± 0.02^$$ mm, the “PaD, pulmonary artery dimension” value [1] was 1.0 ± 0.02 mm and the “PaVTI, pulmonary artery Velocity time integral” value [1] was 29.9 ± 0.5^$. The “PNx-induced increases in cardiac collagen-1 expression” value (collagen-1 [2]) was “reduced”, the “PNx-induced cardiac fibrosis, Sirius Red/Fast Green staining” value [3] was “significantly attenuated” and the “activation of c-Src in LV homogenates” value (c-Src [4]) was “attenuated”. For the same compound, the “renal function as assessed by plasma cystatin C, creatinine, and BUN” value (PNx mice [5]) was “neither CoPP nor pNaKtide effected significant changes”, the HO-1 induction (HO-1 [6]; CoPP 5 μM, compared with TCB) was “considerably greater” and the TBARS (TBARS) was “consistent with the carbonylation data”. For the same compound, the “TCB induced activation of c-Src” value (c-Src [7]; [15]) was “attenuated”, the “increase in heart weight/body weight ratio with PNx” value (PNx mice [8]) was “not” and the “TCB induced activation of ERK1/2” value (ERK1/2 [9]; [15]) was “attenuated”. The “HO-1 expression in the LV homogenates” value (HO-1 [10]) was “induced HO-1 expression most profoundly”, the “collagen-1 expression at baseline” value (collagen-1 [11]; CoPP 5 μM, 24 h, no TCB, C57BL/6 mouse primary cardiac fibroblasts) was “did not significantly affect” and the “TCB induced increases in collagen-1 expression” value (collagen-1 [11]; CoPP 5 μM, 24 h pre-treatment, TCB 100 nM 24 h, p<0.01 vs TCB alone) was “significantly ameliorated”. For the same compound, the “PNx-induced protein carbonylation in LV homogenates” value (protein carbonylation [12]) was “reduced”, the “activation of ERK1/2 in LV homogenates” value (ERK1/2 [13]) was “attenuated” and the “TCB induced protein carbonylation” value (protein carbonylation [14]; [15]) was “attenuated”.
`C[C@]12CC[C@H](O)C[C@@]1(O)CC[C@@H]1[C@@H]2CC[C@]2(C)[C@@H](c3ccc(=O)oc3)CC[C@]12O` [TCB, telecinobufagin] was tested, and the HO-1 expression (HO-1 [6]; TCB 100 nM) was “increased”, the “activation of c-Src” value (c-Src [7]; [16]) was “induced activation” and the “activation of ERK1/2” value (ERK1/2 [9]; [16]) was “induced activation”. For the same compound, the “type I collagen (collagen-1) expression” value (collagen-1 [11]; TCB 100 nM, 24 h, vs control, C57BL/6 mouse primary cardiac fibroblasts, p<0.01) was “induced increases” and the protein carbonylation (protein carbonylation [14]; [16]) was “induced activation”.
